Experimental data: patent US20090104119A1, “Dendrimer Based Compositions And Methods Of Using The Same” (priority 2004, published 2009)

System: s.c. human KB xenografts
Experiment: Targeted drug delivery, tumor growth and survival in SCID mice with KB xenografts
Assay type: in vivo, SCID CB-17 mice
Experimental: Recipient animal and tumor model.
Delivery of targeted nanoparticle therapeutic. Twice weekly, SCID mice with s.c. KB xenografts, starting on day 4 after tumor implantation, received via the tail vein an injection of either targeted or nontargeted conjugate containing methotrexate, a conjugate without methotrexate, free methotrexate, or saline as a control. The compounds were delivered in a 0.2 mL volume of saline per 20 g of mouse. The single dose of methotrexate delivered each time equaled 0.33 mg/kg. The higher doses of 1.67 and 3.33 mg/kg free methotrexate were also tested. The conjugates were delivered at equimolar concentration of methotrexate calculated based on the number of methotrexate molecules present in a nanoparticle. The conjugate without methotrexate was delivered at equimolar concentration of dendrimer. In the initial trial, six groups of mice with five mice in each group received up to 15 injections. In the follow-up trial, mice received up to 28 injections dependent on their survival. The body weights of the mice were monitored throughout the experiment as an indication of adverse effects of the drug. Histopathology of multiple organs was done at the termination of each trial and each time mouse had to be euthanized due to toxic effects or tumor burden. Tissues from lung, heart, liver, pancreas, spleen, kidney, and tumor were analyzed. Additionally, cells were isolated from tumors, stained with targeted fluorescein-labeled conjugate, and tested for the presence of folic acid receptors using flow cytometer.
Targeted drug delivery to tumor cells through the folate receptor. The efficacy of different doses of conjugates was tested on SCID CB-17 mice bearing s.c. human KB xenografts and was compared with equivalent and higher doses of free methotrexate. Mice were maintained on the folic acid-deficient diet for 3 weeks before injection of the KB tumor cells to achieve circulating levels of folic acid that approach those in human serum and to prevent down-regulation of folate receptors on tumor xenografts (See, Mathias et al., J Nucl Med 29, 1579 (1998)). Six groups of SCID mice with five mice in each group were injected s.c. on one flank with 5×10^6 KB cells in 0.2 mL PBS suspension. The highest total dose of G5-FI-FA-MTX therapeutic used equals 55.0 mg/kg and is equivalent to a 5.0 mg/kg total cumulative dose of free methotrexate (FIG. 29). The therapeutic dose of the conjugate was compared with three cumulative doses of free methotrexate equivalent to 33.3, 21.7, and 5.0 mg/kg accumulated in 10 to 15 injections based on mouse survival. Saline and the conjugate without methotrexate (G5-FI-FA) were used as controls.

## G5-(Ac)82-(FITC)5-(FA)5-MTX5 [G5-FITC-FA-MTX]
First trial, up to 15 injections, cumulative 5.0 mg/kg methotrexate equivalents or equimolar dendrimer
  effect on tumor growth: as equally effective as the second highest dose of free methotrexate
Second 99-day trial
  survivors at the termination of the trial: two (of eight)
Second 99-day trial, P<0.05
  tumor growth versus G5-FI-MTX, free methotrexate or saline: slower growth of tumors
